Data reported in paper PMC7113723 (Antiviral Research, 2017).
Where two headings read alike, the source gives them in different places.

Columns and labels:
5′ UTR of HCoV-229E = format: cell-based, human coronavirus 229E
EBOV = conditions: cited from earlier work
HRV A1 [1] = test: microbe, parasite or virus in culture; format: cell-based, human rhinovirus A1; conditions: Rhinovirus A, MRC5, 24 h
EBOV 5′ UTR L = format: cell-based, Ebola virus
[2] = test system: 5′ UTR of the ß-actin mRNA; format: cell-based
HCoV-229E [3] = test: microbe, parasite or virus in culture; format: cell-based; conditions: Human coronavirus 229E, PBMC
PV [4] = test: microbe, parasite or virus in culture; format: cell-based, poliovirus type 1
HRV A1 [5] = test: microbe, parasite or virus in culture; format: cell-based, human rhinovirus A1; conditions: Rhinovirus A, HeLa, 24 h
[6] = test system: 5′ UTR of the classical swine fever virus (CSFV); format: cell-based
HCoV-229E [7] = test: microbe, parasite or virus in culture; format: cell-based; conditions: Human coronavirus 229E, Huh-7, 24 h
5′ UTR of PIM1 = format: cell-based
[8] = ref Saradhi et al., 2011; cited from earlier work
HCoV-229E [9] = test: microbe, parasite or virus in culture; format: cell-based; conditions: Human coronavirus 229E, MRC5, 24 h
HCoV-229E [10] = test: Immunofluorescence of viral dsRNA and nsp8 in HCoV-229E-infected MRC-5 cells; format: cell-based, human coronavirus 229E; conditions: MRC-5, MOI 3, 12 h p.i.
PV [11] = test: microbe, parasite or virus in culture; format: cell-based, poliovirus type 1; conditions: Enterovirus C, MRC5, 24 h
Cell toxicity, MTT assay = conditions: human, PBMCs
MERS-CoV = test: microbe, parasite or virus in culture; format: cell-based, Middle East Respiratory Syndrome coronavirus
5′ UTR of MERS-CoV = format: cell-based, Middle East Respiratory Syndrome coronavirus
HCoV-229E [12] = format: cell-based, human coronavirus 229E; conditions: Huh-7 cells, MOI 3
HCoV-229E [13] = format: cell-based, human coronavirus 229E; conditions: MRC-5 cells, 10 nM silvestrol, MOI 3, 12 h and 48 h p.i.
EBOV 5′ UTR VP40 = format: cell-based, Ebola virus
[14] = Middle East respiratory syndrome-related coronavirus, MRC5, 24 h

## COC(=O)[C@H]1[C@@H](O)[C@@]2(O)c3c(OC)cc(O[C@@H]4O[C@@H]([C@H](O)CO)CO[C@H]4OC)cc3O[C@@]2(c2ccc(OC)cc2)[C@@H]1c1ccccc1 [silvestrol]
5′ UTR of HCoV-229E
  decrease of luciferase activity: ~40%
EBOV
  EBOV titers: strongly reduce EBOV titers
HRV A1 [1]
  EC50: ~100 nM
  EC90: 900 nM
EBOV 5′ UTR L
  decrease of firefly luciferase activity: 33%
[2]
  inhibition of firefly luciferase expression: not more than 10%
HCoV-229E [3]
  EC50: 3.5 nM
HCoV-229E [3]; 24 h
  EC50: 2.8 nM
  EC90: 25 nM
PV [4]
  SI, selectivity indices: ≤ 1.6
PV [4]; Enterovirus C, Vero, 24 h
  EC50: 100 nM
  EC90: 900 nM
HRV A1 [5]
  EC50: 400 nM
  EC90: 3.6 µM
[6]
  sensitivity towards silvestrol in the dual luciferase assay: no sensitivity
HCoV-229E [7]
  EC50: 40 nM
  EC90: 360 nM
5′ UTR of PIM1
  inhibition of firefly luciferase expression: ~40%
[8]
  pharmacokinetics in terms of bioavailability and biostability: favorable pharmacokinetics
HCoV-229E [9]
  EC50: 3 nM
  EC90: 27 nM
HCoV-229E [10]; 10 nM silvestrol
  viral dsRNA and nsp8 protein (immunofluorescence): significant decrease
HCoV-229E [10]; 100 nM silvestrol
  viral dsRNA and nsp8 protein (immunofluorescence): nearly no viral dsRNA and nsp8 could be detected
PV [11]
  EC50: ~20 nM
  EC90: 180 nM
Cell toxicity, MTT assay
  CC50 at 24 h: > 1000 nM
MERS-CoV
  SI, selectivity index: >7690
MERS-CoV; [14]
  EC50: 1.3 nM
  EC90: 12 nM
5′ UTR of MERS-CoV
  decrease of luciferase activity: ~40%
HCoV-229E [12]; 100 nM silvestrol
  N and nsp8 protein accumulation (Western blot): essentially undetectable
HCoV-229E [12]; silvestrol up to 10 nM
  N and nsp8 protein accumulation (Western blot): unaffected
HCoV-229E [13]
  N and nsp8 protein accumulation (Western blot): very low amounts
EBOV 5′ UTR VP40
  decrease of firefly luciferase activity: 23%
